Results taken from patent US20110117627A1, “REGULATION OF APOPTOSIS BY NEURAL SPECIFIC SPLICE VARIANTS OF IG20” (The Board of Trustees of the University of Illinois, priority 2008, published 2011).
“Also recorded” adds a separate entry of the source. Where a SMILES comes first, the peptide text is derived from it. The star is where a group is joined. Cbz = O=C(OCc1ccccc1)*; CH2F = FC*

Key:
Type in all cases: cell-based, human
SK-N-SH cells = assay: Caspase-8 inhibition, apoptosis by Annexin V-PE/7-AAD; details: 40 μM and 80 μM for two days
Protocol: FIG. 6. Down modulation of KIAA0358 or selective expression of IG20-SV4 enhances apoptosis through expression/activation of caspase-8 in SK-N-SH cells. (A) Effects of cycloheximide on expression/activation of caspase-8. Three days post-transduction with shRNA-expressing virus, SK-N-SH cells were treated with 10 μg/ml cycloheximde (a protein synthesis inhibitor) for two days. Whole cell lysates were subjected to western blot analysis. (B) Caspase-8 reporter assay. SK-N-SH cells were cotransfected with pGL4.17-caspase-8 promoter vector, pSV40-Renilla luciferase vector and pEYFP-C1/or pEYFP-IG20-SV4 using Lipofectamine2000, 48 hrs later, cells were collected and analyzed for luciferase activity with the Dual-Luciferase Reporter Assay System (Promega). (C) and (D) Effects of caspase-8 inhibition. Three days post-transduction with shRNA-expressing virus, SK-N-SH cells were treated with 40 μM and 80 μM of Z-1ETD-FMK (a caspase 8 inhibitor) for two days. Collected cells were either subjected to Annexin V-PE/7-AAD stain for FACS analysis (C) or western blot analysis (D). (C) Percentage apoptosis in cells transduced with different shRNAs in the presence or absence of the caspase inhibitor. The P-value was **P<0.01 for Z-IETD-FMK treated vs untreated. […] Representative data are from three independent experiments.
Caspase-8 inhibition. […]

caspase-8 [1] = assay: Caspase-8 inhibition, western blot; details: SK-N-SH cells, 40 μM and 80 μM
Protocol: (§1) FIG. 6. Down modulation of KIAA0358 or selective expression of IG20-SV4 enhances apoptosis through expression/activation of caspase-8 in SK-N-SH cells. (A) Effects of cycloheximide on expression/activation of caspase-8. Three days post-transduction with shRNA-expressing virus, SK-N-SH cells were treated with 10 μg/ml cycloheximde (a protein synthesis inhibitor) for two days. Whole cell lysates were subjected to western blot analysis. (B) Caspase-8 reporter assay. SK-N-SH cells were cotransfected with pGL4.17-caspase-8 promoter vector, pSV40-Renilla luciferase vector and pEYFP-C1/or pEYFP-IG20-SV4 using Lipofectamine2000, 48 hrs later, cells were collected and analyzed for luciferase activity with the Dual-Luciferase Reporter Assay System (Promega). (C) and (D) Effects of caspase-8 inhibition. Three days post-transduction with shRNA-expressing virus, SK-N-SH cells were treated with 40 μM and 80 μM of Z-1ETD-FMK (a caspase 8 inhibitor) for two days. […]
(§2) Western Blot Analysis. […] The protein content was determined using a dye-binding microassay (Bio-Rad), and after boiling the samples for 2 min in a 1× SDS protein sample buffer, 20 μg of protein per lane was loaded and separated on 10% SDS-polyacrylamide gel. […] Proteins were detected using an enhanced chemiluminescence plus western blotting detection system (Amersham, UK). […]

caspase-8 [2] = assay: Cycloheximide treatment of transduced SK-N-SH cells, western blot of caspase-8; details: 10 μg/mL cycloheximide
Protocol: as §1, with “(Promega).” for “(Promega). (C) and (D) Effects of caspase-8 inhibition. Three days post-transduction with shRNA-expressing virus, SK-N-SH cells were treated with 40 μM and 80 μM of Z-1ETD-FMK (a caspase 8 inhibitor) for two days.”
To determine whether the increased apoptosis induced utilizing 34+13L shRNA was due to modulation of the expression of caspase-8, the expression of caspase-8 transcripts was measured in SK-N-SH cells treated with the different combinations of siRNAs. […]
as §2

SMILES	apoptosis in cells treated with shRNA targeting 34E (SK-N-SH cells)	apoptotic effect caused by down-modulation of KIAA0358 (SK-N-SH cells)	effect on caspase-8 expression (western blot) (caspase-8 [1])	expression of caspase-8 protein (caspase-8 [2])
CC[C@H](C)[C@H](NC(=O)OCc1ccccc1)C(=O)N[C@@H](CCC(=O)OC)C(=O)N[C@H](C(=O)N[C@@H](CC(=O)OC)C(=O)CF)[C@@H](C)O [Z-IETD-FMK] (Cbz-IE(OMe)TD(OMe)-CH2F)	did not significantly affect apoptosis	significantly attenuated the apoptotic effect	inhibitory effect	
C[C@@H]1C[C@@H]([C@H](O)CC2CC(=O)NC(=O)C2)C(=O)[C@@H](C)C1 [cycloheximide]				inhibited the expression of caspase-8 protein; also recorded: the induced caspase-8 was inhibited
